Experimental data as given in ChEMBL document CHEMBL1201862, “PubChem BioAssay data set” (2004).
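Values below derive from 48-hour exposures of cells grown in 96-well plates, with endpoints linearly interpolated between the two concentrations bracketing the appropriate inhibition level. GI50: concentration for 50% inhibition of growth.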 The source made the active and inactive calls. No stated cut-off is given here; in the data, active = GI50 up to about 1.1 µM and inactive = higher.

How the values were obtained:
Assay in all cases: inhibition of tumour cell growth, NCI panel, 48 h
A549 = system: A549
786-0 = system: 786-0
SK-MEL-5 = system: SK-MEL-5
RPMI-8226 = system: RPMI-8226
HL-60 = system: HL-60
KM12 = system: KM12
NCI-H522 = system: NCI-H522
A498 = system: A498
CCRF-CEM = system: CCRF-CEM
UACC-62 = system: UACC-62
ACHN = system: ACHN
OVCAR-3 = system: OVCAR-3
NCI-H23 = system: NCI-H23
RXF 393 = system: RXF 393
SK-OV-3 = system: SK-OV-3
M14 = system: M14
SR = system: SR

Measured: GI50

CC1CC(c2cccc3c2OCO3)=Nc2ccccc2S1 (stereo not drawn)
inactive: A549 > 100 µM | 786-0 > 100 µM | SK-MEL-5 > 100 µM | RPMI-8226 > 100 µM | HL-60 > 100 µM | KM12 > 100 µM | NCI-H522 > 100 µM | A498 > 100 µM | CCRF-CEM > 100 µM | UACC-62 > 100 µM | ACHN > 100 µM | OVCAR-3 > 100 µM | NCI-H23 > 100 µM | RXF 393 > 100 µM | SK-OV-3 > 100 µM | M14 > 100 µM

O=C1C(Br)=C[C@H]2C3C=CC(Br)(C3=O)[C@@H]12 (stereo partly drawn)
inactive: A549 15.3 µM | 786-0 14.7 µM | SK-MEL-5 14 µM | RPMI-8226 3.05 µM | HL-60 2.43 µM | KM12 11.9 µM | NCI-H522 5.85 µM | A498 19 µM | CCRF-CEM 2.59 µM | UACC-62 3.82 µM | ACHN 14.6 µM | OVCAR-3 13.6 µM | NCI-H23 12.5 µM | RXF 393 13.8 µM | SK-OV-3 7.69 µM | M14 9.33 µM

COc1cc(/C=C(\C#N)C(=O)c2ccccc2)ccc1OCc1ccccc1
inactive: A549 > 100 µM | 786-0 > 100 µM | SK-MEL-5 > 100 µM | RPMI-8226 > 100 µM | HL-60 > 100 µM | KM12 > 100 µM | NCI-H522 > 100 µM | SR > 100 µM | CCRF-CEM > 100 µM | UACC-62 > 100 µM | ACHN > 100 µM | OVCAR-3 > 100 µM | NCI-H23 > 100 µM | SK-OV-3 > 100 µM | M14 > 100 µM

Nc1ncnc2c1nnn2C1C=C(CO)C(O)C1O (stereo not drawn)
inactive: A549 58.1 µM | 786-0 53.2 µM | SK-MEL-5 > 100 µM | RPMI-8226 20.3 µM | HL-60 12.1 µM | KM12 36.6 µM | NCI-H522 > 100 µM | A498 > 100 µM | CCRF-CEM 50.7 µM | UACC-62 > 100 µM | ACHN > 53.5 µM | OVCAR-3 > 100 µM | NCI-H23 > 78.9 µM | RXF 393 > 77.1 µM | SK-OV-3 > 100 µM | M14 > 52.2 µM

O=C(N/C(=C\c1ccccc1O)c1nc2ccccc2[nH]1)c1ccccc1
inactive: A549 > 100 µM | 786-0 48.1 µM | SK-MEL-5 95.7 µM | RPMI-8226 > 100 µM | KM12 > 100 µM | NCI-H522 45.2 µM | A498 62.4 µM | CCRF-CEM > 100 µM | UACC-62 > 100 µM | ACHN 73.8 µM | OVCAR-3 > 100 µM | NCI-H23 40.6 µM | RXF 393 > 100 µM | SK-OV-3 36.1 µM | M14 > 100 µM

CS/C(=N/C#N)NCCc1c[nH]c2ccccc12
inactive: A549 > 100 µM | 786-0 45.6 µM | SK-MEL-5 76 µM | RPMI-8226 96.8 µM | HL-60 55.2 µM | KM12 > 100 µM | SR 60.3 µM | CCRF-CEM 48.2 µM | UACC-62 > 100 µM | ACHN 25.1 µM | OVCAR-3 > 100 µM | NCI-H23 > 100 µM | RXF 393 > 100 µM | SK-OV-3 > 100 µM | M14 > 100 µM

CC1(C)COC(c2cccc3c2C(=O)c2cccc(Cl)c2-3)=N1
inactive: A549 58.1 µM | 786-0 39.4 µM | SK-MEL-5 25.3 µM | RPMI-8226 31.7 µM | HL-60 28.4 µM | KM12 47.9 µM | NCI-H522 31.8 µM | A498 32.1 µM | CCRF-CEM 43 µM | UACC-62 51.5 µM | ACHN 51.1 µM | OVCAR-3 78.2 µM | NCI-H23 52.5 µM | RXF 393 22.7 µM | SK-OV-3 48.8 µM | M14 47.9 µM

CN(C)c1ccc(-c2nc(N)nc3c2CCCC3)cc1
inactive: A549 52.8 µM | 786-0 82 µM | SK-MEL-5 34.7 µM | RPMI-8226 30 µM | HL-60 29.3 µM | KM12 54 µM | NCI-H522 25.2 µM | A498 35.6 µM | CCRF-CEM 50.5 µM | UACC-62 44.7 µM | ACHN 26.4 µM | OVCAR-3 23.4 µM | NCI-H23 64.7 µM | RXF 393 34 µM | SK-OV-3 > 100 µM | M14 68.1 µM

O=C(CC(CC(=O)Oc1c(Br)cc(Br)cc1C(=O)O)C(=O)Oc1c(Br)cc(Br)cc1C(=O)O)Oc1c(Br)cc(Br)cc1C(=O)O
inactive: A549 47.5 µM | 786-0 > 100 µM | SK-MEL-5 > 100 µM | RPMI-8226 33.7 µM | HL-60 43.7 µM | KM12 50.7 µM | NCI-H522 22.2 µM | A498 81.5 µM | CCRF-CEM 41.6 µM | UACC-62 49.9 µM | ACHN > 100 µM | OVCAR-3 47.8 µM | NCI-H23 36.4 µM | SK-OV-3 54.7 µM | M14 91.6 µM

CC(C)[C@@H](COC(C)(C)C)/N=C/N1CCc2c([nH]c3ccccc23)C1
inactive: A549 > 100 µM | 786-0 > 100 µM | SK-MEL-5 > 100 µM | RPMI-8226 > 100 µM | HL-60 > 100 µM | KM12 > 100 µM | NCI-H522 > 100 µM | A498 > 100 µM | CCRF-CEM > 100 µM | UACC-62 > 100 µM | ACHN > 100 µM | OVCAR-3 > 100 µM | NCI-H23 > 100 µM | RXF 393 > 100 µM | SK-OV-3 > 100 µM | M14 > 100 µM

CC(=O)C1C(c2ccc(N(C)C)cc2)c2cc3c(cc2OC1(C)O)OCO3 (stereo not drawn)
inactive: A549 37.6 µM | 786-0 36.7 µM | SK-MEL-5 30.8 µM | RPMI-8226 26.7 µM | HL-60 24.3 µM | CCRF-CEM 32.5 µM | UACC-62 32.9 µM | ACHN 41.2 µM | OVCAR-3 35 µM | NCI-H23 59 µM | RXF 393 33.3 µM | SK-OV-3 55.3 µM | M14 43.8 µM

COc1cccc(NC(=O)C(=O)C(C(C)=O)c2nc3ccc(Cl)cc3nc2O)c1 (stereo not drawn)
inactive: A549 > 100 µM | 786-0 > 100 µM | SK-MEL-5 > 100 µM | RPMI-8226 > 100 µM | HL-60 > 100 µM | KM12 > 100 µM | A498 > 100 µM | CCRF-CEM > 100 µM | UACC-62 > 100 µM | ACHN > 100 µM | OVCAR-3 > 100 µM | NCI-H23 > 100 µM | RXF 393 > 100 µM | SK-OV-3 > 100 µM | M14 > 100 µM

O=S(O)CCCSSc1ccccc1
inactive: A549 25.5 µM | 786-0 66.8 µM | SK-MEL-5 22.5 µM | KM12 31.1 µM | NCI-H522 18.3 µM | A498 51.9 µM | CCRF-CEM 7.67 µM | UACC-62 36.6 µM | ACHN 48 µM | OVCAR-3 53.8 µM | NCI-H23 66.7 µM | RXF 393 22.9 µM | SK-OV-3 99.3 µM | M14 37.1 µM
